Measured values from patent publication US20250263396A1, “CRYSTALLINE FORMS OF 3-(5-(2-HYDROXY-2- METHYLPROPOXY)-6-METHYPYRAZIN-2-YL)-1H-INDOLE-7-CARBONITRILE” (NIDO BIOSCIENCES, INC., priority 2024, published 2025).
Values after ≈ are worked out from the molar mass of the structure shown. Like-named read-outs stand apart in the source and are kept apart here.

Key:
[1] = cake dried under vacuum
Description: The cake of Form P was dried under vacuum at different temperatures to evaluate the chemical stability of dry cake.

[2] = Solid state
Description: Bulk stability of Form P was evaluated at 25° C./92% RH in an open container, at 40° C./75% RH in an open container and at 60° C. in a tight container over 1 week, 2 weeks and 4 weeks. […] Samples after the stress were characterized by XRPD and HPLC and inspected for color change. Form P was also stressed under visible light for 1.2 million lux-hrs. at 25° C. Samples after the stress were characterized by XRPD and HPLC and inspected for color change.

[3] = Dry grinding simulation experiments; type: physicochemical; conditions: ground manually with mortar and pestle
Description: About 10 mg of Form P was ground manually with a mortar and a pestle for 1, 3 and 5 minutes.
About 10 mg of Form C was ground manually with a mortar and a pestle for 5 minutes.

[4] = wet cake in sealed bottle
Description: Wet cake chemical stability of Form P at 40° C., 50° C., 60° C. was evaluated.

physchem = conditions: 37 °C, thermodynamic from solid
Description: Non-milled Form P (10 mg, purity 100%) was weighed into a 20 mL glass vial. 5 mL of solubility medium was added. Obtained suspensions were stirred at 37° C. at 400 rpm and sampled at 24 hours. The samples were centrifuged at 37 C at 14,000 rpm for 5 min. Supernatants were analyzed by HPLC and pH meter for solubility and pH value, respectively. Residual solids (wet cakes) from the 24 hours samples were also characterized by XRPD to determine physical form.

[5] = 25° C./92.5% RH, open container, 1 week
[6] = 25° C./92.5% RH, open container, 2 weeks
[7] = 25° C./92.5% RH, open container, 4 weeks
[8] = 40° C./75% RH, open container, 1 week
[9] = 40° C./75% RH, open container, 2 weeks
[10] = 40° C./75% RH, open container, 4 weeks
[11] = 60° C., tight container, 1 week
[12] = 60° C., tight container, 2 weeks
[13] = 60° C., tight container, 4 weeks
[14] = photo (visible light, closed, 1.2 million lux-hrs at 25° C.), clear vial
[15] = photo (visible light, closed, 1.2 million lux-hrs at 25° C.), wrapped with aluminum foil

Compound: Cc1nc(-c2c[nH]c3c(C#N)cccc23)cnc1OCC(C)(C)O [Form P, 3-(5-(2-hydroxy-2-methylpropoxy)-6-methylpyrazin-2-yl)-1H-indole-7-carbonitrile]
- Purity after holding ([1]; 0 h): Purity: 100%
- Purity after holding ([1]; 40° C., 22 h): 100%
- Purity after holding ([1]; 40° C., 4 d): 100%
- Purity after holding ([1]; 50° C., 22 h): 100%
- Purity after holding ([1]; 50° C., 4 d): 100%
- Purity after holding ([1]; 60° C., 22 h): 100%
- Purity after holding ([1]; 60° C., 4 d): 100%
- Bulk (XRPD) [2, 5]: No form change
- Color [2, 5]: No color change
- Purity, Bulk (HPLC) [2, 5]: 100%
- Bulk (XRPD) [2, 6]: No form change
- Color [2, 6]: No color change
- Purity, Bulk (HPLC) [2, 6]: 100%
- Bulk (XRPD) [2, 7]: No form change
- Color [2, 7]: No color change
- Purity, Bulk (HPLC) [2, 7]: 100%
- Bulk (XRPD) [2, 8]: No form change
- Color [2, 8]: No color change
- Purity, Bulk (HPLC) [2, 8]: 100%
- Bulk (XRPD) [2, 9]: No form change
- Color [2, 9]: No color change
- Purity, Bulk (HPLC) [2, 9]: 100%
- Bulk (XRPD) [2, 10]: No form change
- Color [2, 10]: No color change
- Purity, Bulk (HPLC) [2, 10]: 100%
- Bulk (XRPD) [2, 11]: No form change
- Color [2, 11]: No color change
- Purity, Bulk (HPLC) [2, 11]: 99.9%
- Bulk (XRPD) [2, 12]: No form change
- Color [2, 12]: No color change
- Purity, Bulk (HPLC) [2, 12]: 100%
- Bulk (XRPD) [2, 13]: No form change
- Color [2, 13]: No color change
- Purity, Bulk (HPLC) [2, 13]: 100%
- Bulk, clear vial (XRPD) [2, 14]: No form change
- Color [2, 14]: medium discoloration
- Purity, Bulk, clear vial (HPLC) [2, 14]: ~60%
- Color [2, 15]: No color change
- Purity, Bulk, wrapped with aluminum foil (HPLC) [2, 15]: 100%
- Comments (crystallinity) ([3]; 1 min): No obvious change in crystallinity
- XRPD ([3]; 1 min): Form P
- Comments (crystallinity) ([3]; 3 min): No obvious change in crystallinity
- XRPD ([3]; 3 min): Form P
- Comments (crystallinity) ([3]; 5 min): No obvious change in crystallinity
- XRPD ([3]; 5 min): Form P
- Purity after holding ([4]; 0 h): Purity: 100%
- Purity after holding ([4]; 40° C., 22 h): 100%
- Purity after holding ([4]; 40° C., 4 d): 100%
- Purity after holding ([4]; 50° C., 22 h): 100%
- Purity after holding ([4]; 50° C., 4 d): 100%
- Purity after holding ([4]; 60° C., 22 h): 100%
- Purity after holding ([4]; 60° C., 4 d): 100%
- solubility at 24 h (physchem; pH 1.2, simulated gastric fluid): 7.2 µg/mL (≈ 22.3 µM)
- solubility at 24 h (physchem; pH 1.6, fassgf or other biorelevant): 5.1 µg/mL (≈ 15.8 µM)
- solubility at 24 h (physchem; pH 3, aqueous buffer): 2.9 µg/mL (≈ 9 µM)
- solubility at 24 h (physchem; pH 5, aqueous buffer): 2.3 µg/mL (≈ 7.13 µM)
- solubility at 24 h (physchem; pH 5, fessif): 111 µg/mL (≈ 343 µM)
- solubility at 24 h (physchem; pH 6.5, fassif): 20.9 µg/mL (≈ 64.8 µM)
- solubility at 24 h (physchem; pH 7, aqueous buffer): 2.4 µg/mL (≈ 7.44 µM)
- solubility at 24 h (physchem; water): 2.7 µg/mL (≈ 8.38 µM)
